Results reported in PubChem BioAssay (NCI).
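In this assay, cells in 96-well plates receive the compound at five concentrations for 48 hours. Endpoints are linearly interpolated between the surrounding concentrations. GI50: concentration for 50% inhibition of growth. At the TGI there is no net growth.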

What was measured:
Assay in all cases: inhibition of tumour cell growth, NCI panel, 48 h
[1] = test system: NCI-H23 lung
[2] = test system: SF-295 CNS
[3] = test system: EKVX NSCLC
[4] = test system: UACC-62 melanoma
[5] = test system: UACC-257 melanoma
[6] = test system: COLO 205 colon
[7] = test system: SF-539 CNS
[8] = test system: SK-OV-3 ovarian
[9] = test system: NCI/ADR-RES ovarian
[10] = test system: U251 CNS
[11] = test system: ACHN renal
[12] = test system: OVCAR-4 ovarian
[13] = test system: M14 melanoma
[14] = test system: HL-60(TB) leukemia
[15] = test system: TK-10 renal
[16] = test system: T-47D breast
[17] = test system: DU-145 prostate
[18] = test system: HCC-2998 colon
[19] = test system: SN12C renal
[20] = test system: OVCAR-8 ovarian
[21] = test system: HOP-62 NSCLC
[22] = test system: PC-3 prostate
[23] = test system: CCRF-CEM leukemia
[24] = test system: HCT-15 colon
[25] = test system: RPMI-8226 leukemia
[26] = test system: IGROV1 ovarian
[27] = test system: OVCAR-5 ovarian
[28] = test system: MALME-3M melanoma
[29] = test system: SW-620 colon
[30] = test system: MOLT-4 leukemia
[31] = test system: KM12 colon
[32] = test system: MCF7 breast
[33] = test system: SK-MEL-28 melanoma
[34] = test system: K-562 leukemia
[35] = test system: NCI-H522 lung
[36] = test system: SNB-75 CNS
[37] = test system: SF-268 CNS
[38] = test system: OVCAR-3 ovarian
[39] = test system: UO-31 renal
[40] = test system: 786-0 renal
[41] = test system: SK-MEL-2 melanoma
[42] = test system: CAKI-1 renal
[43] = test system: HS 578T breast
[44] = test system: BT-549 breast
[45] = test system: A549 NSCLC
[46] = test system: HT29 colon
[47] = test system: SNB-19 CNS
[48] = test system: NCI-H460 lung
[49] = test system: SK-MEL-5 melanoma
[50] = test system: MDA-MB-435
[51] = test system: A498 renal
[52] = test system: SR leukemia
[53] = test system: MDA-MB-231 breast
[54] = test system: RXF 393 renal
[55] = test system: NCI-H226 lung
[56] = test system: LOX IMVI melanoma
[57] = test system: HCT-116 colon

SMILES: COc1cc2c(cc1OCCCCCOc1cc3c(cc1OC)C(=O)N1CC(F)C[C@H]1C=N3)N=C[C@@H]1CC(F)CN1C2=O (some centres undefined)
- GI50 [1]: < 37.3 nM
- TGI [1]: 394 nM
- GI50 [2]: < 14.8 nM
- TGI [2]: 694 nM
- GI50 [3]: 1100 nM
- TGI [3]: 7780 nM
- GI50 [4]: 51.1 nM
- TGI [4]: 224 nM
- GI50 [5]: 165 nM
- TGI [5]: 444 nM
- GI50 [6]: 191 nM
- TGI [6]: 465 nM
- GI50 [7]: 16.1 nM
- TGI [7]: 458 nM
- GI50 [8]: 327 nM
- TGI [8]: 46500 nM
- GI50 [9]: 553 nM
- TGI [9]: 9870 nM
- GI50 [10]: 13.5 nM
- TGI [10]: 235 nM
- GI50 [11]: < 16.9 nM
- TGI [11]: 167 nM
- GI50 [12]: 1290 nM
- TGI [12]: 24100 nM
- GI50 [13]: 27.5 nM
- TGI [13]: 272 nM
- GI50 [14]: < 10 nM
- TGI [14]: 2390 nM
- GI50 [15]: 1980 nM
- TGI [15]: 6320 nM
- GI50 [16]: 265 nM
- TGI [16]: 14000 nM
- GI50 [17]: 97 nM
- TGI [17]: 2670 nM
- GI50 [18]: 229 nM
- TGI [18]: 2890 nM
- GI50 [19]: < 42.7 nM
- TGI [19]: 952 nM
- GI50 [20]: 138 nM
- TGI [20]: 2060 nM
- GI50 [21]: < 10 nM
- TGI [21]: 222 nM
- GI50 [22]: 295 nM
- TGI [22]: 1490 nM
- GI50 [23]: < 10 nM
- TGI [23]: 71.3 nM
- GI50 [24]: 1110 nM
- TGI [24]: 3720 nM
- GI50 [25]: < 15.1 nM
- TGI [25]: 62.2 nM
- GI50 [26]: 59.9 nM
- GI50 [27]: 117 nM
- TGI [27]: 3250 nM
- GI50 [28]: 124 nM
- TGI [28]: 733 nM
- GI50 [29]: 70.1 nM
- TGI [29]: 452 nM
- GI50 [30]: < 10 nM
- TGI [30]: 66.3 nM
- GI50 [31]: 369 nM
- TGI [31]: 1150 nM
- GI50 [32]: < 10.8 nM
- TGI [32]: 1310 nM
- GI50 [33]: 424 nM
- TGI [33]: 8450 nM
- GI50 [34]: 32.5 nM
- TGI [34]: 1940 nM
- GI50 [35]: 37.2 nM
- TGI [35]: 204 nM
- GI50 [36]: 48.8 nM
- TGI [36]: > 100000 nM
- GI50 [37]: < 10 nM
- TGI [37]: 1190 nM
- GI50 [38]: 128 nM
- TGI [38]: 510 nM
- GI50 [39]: 315 nM
- TGI [39]: 4640 nM
- GI50 [40]: < 10 nM
- TGI [40]: 160 nM
- GI50 [41]: 279 nM
- GI50 [42]: < 10 nM
- TGI [42]: 411 nM
- GI50 [43]: 58.1 nM
- TGI [43]: 246 nM
- GI50 [44]: 93.9 nM
- TGI [44]: 721 nM
- GI50 [45]: 158 nM
- TGI [45]: 2870 nM
- GI50 [46]: 246 nM
- TGI [46]: > 58600 nM
- GI50 [47]: 376 nM
- TGI [47]: > 100000 nM
- GI50 [48]: < 10 nM
- TGI [48]: 143 nM
- GI50 [49]: 51.1 nM
- TGI [49]: 127 nM
- GI50 [50]: 169 nM
- TGI [50]: 761 nM
- GI50 [51]: 86.3 nM
- TGI [51]: 217 nM
- GI50 [52]: < 10 nM
- GI50 [53]: 245 nM
- TGI [53]: 550 nM

SMILES: CCN1/C(=C/C=C/c2n(-c3ccccc3)c3ccc(-c4nc5ccccc5s4)cc3[n+]2CC)N(c2ccccc2)c2ccc(-c3nc4ccccc4s3)cc21
- GI50 [1]: 533 nM
- TGI [1]: 5080 nM
- GI50 [3]: 387 nM
- TGI [3]: > 50000 nM
- GI50 [4]: 970 nM
- TGI [4]: > 50000 nM
- GI50 [54]: 563 nM
- TGI [54]: 7370 nM
- GI50 [5]: 539 nM
- TGI [5]: > 15400 nM
- GI50 [6]: 187 nM
- TGI [6]: 919 nM
- GI50 [7]: 854 nM
- TGI [7]: 5750 nM
- GI50 [9]: 3550 nM
- TGI [9]: > 50000 nM
- GI50 [10]: 274 nM
- TGI [10]: 1920 nM
- GI50 [11]: 622 nM
- TGI [11]: > 50000 nM
- GI50 [12]: 765 nM
- TGI [12]: > 50000 nM
- GI50 [13]: 437 nM
- TGI [13]: 4620 nM
- GI50 [14]: 464 nM
- TGI [14]: > 50000 nM
- GI50 [15]: 1940 nM
- TGI [15]: > 50000 nM
- GI50 [16]: 746 nM
- TGI [16]: > 50000 nM
- GI50 [17]: 374 nM
- TGI [17]: 2490 nM
- GI50 [18]: 1690 nM
- TGI [18]: > 31100 nM
- GI50 [19]: 175 nM
- TGI [19]: 2440 nM
- GI50 [20]: 304 nM
- TGI [20]: 5820 nM
- GI50 [22]: 284 nM
- TGI [22]: > 50000 nM
- GI50 [23]: 2690 nM
- TGI [23]: > 50000 nM
- GI50 [24]: 1000 nM
- TGI [24]: > 50000 nM
- GI50 [25]: 303 nM
- TGI [25]: > 50000 nM
- GI50 [26]: 750 nM
- TGI [26]: > 50000 nM
- GI50 [27]: 1530 nM
- TGI [27]: > 50000 nM
- GI50 [28]: 161 nM
- TGI [28]: 838 nM
- GI50 [29]: 445 nM
- TGI [29]: > 50000 nM
- GI50 [30]: 1800 nM
- TGI [30]: > 50000 nM
- GI50 [31]: 1240 nM
- TGI [31]: > 50000 nM
- GI50 [32]: 426 nM
- TGI [32]: > 50000 nM
- GI50 [55]: 317 nM
- TGI [55]: 15600 nM
- GI50 [33]: 488 nM
- TGI [33]: 5820 nM
- GI50 [34]: 471 nM
- TGI [34]: > 50000 nM
- GI50 [35]: 585 nM
- TGI [35]: 3410 nM
- GI50 [36]: 347 nM
- TGI [36]: > 46700 nM
- GI50 [37]: 525 nM
- TGI [37]: > 50000 nM
- GI50 [38]: 1010 nM
- TGI [38]: 10300 nM
- GI50 [39]: 622 nM
- TGI [39]: 3570 nM
- GI50 [40]: 602 nM
- TGI [40]: > 50000 nM
- GI50 [56]: 1220 nM
- TGI [56]: > 50000 nM
- GI50 [41]: 890 nM
- TGI [41]: 2850 nM
- GI50 [43]: 284 nM
- TGI [43]: > 50000 nM
- GI50 [44]: 500 nM
- TGI [44]: 3280 nM
- GI50 [45]: 284 nM
- TGI [45]: > 26100 nM
- GI50 [46]: 333 nM
- TGI [46]: > 50000 nM
- GI50 [47]: 369 nM
- TGI [47]: > 50000 nM
- GI50 [48]: 527 nM
- TGI [48]: > 50000 nM
- GI50 [49]: 184 nM
- TGI [49]: 1270 nM
- GI50 [50]: 1350 nM
- TGI [50]: > 50000 nM
- GI50 [51]: 246 nM
- TGI [51]: 2390 nM
- GI50 [52]: 1400 nM
- TGI [52]: > 50000 nM
- GI50 [57]: 436 nM
- TGI [57]: > 50000 nM
- GI50 [53]: 190 nM
- TGI [53]: 1680 nM
